target: HPK1 (Homo sapiens (Human), UniProt Q92918); assay: HPK1 Kinase Binding Assay; details: LanthaScreen tracer 222 binding, active HPK1, one hour at 25° C.
Procedure: A stock solution of 1 mM test compound was prepared in DMSO. The compound plate was prepared by 3-fold and 11-point serial dilutions. 0.1 μL of the compound in DMSO was transferred from the compound plate to the white 384 well polystyrene plates. The assay buffer contained 50 mM HEPES, pH 7.5, 0.01% Tween-20, 5 mM MgCl2, 0.01% BSA, and 5 mM DTT. 5 μL of 4 nM active HPK1 (SignalChem M23-11G) prepared in the buffer was added to the plate. The enzyme concentration given was based on the given stock concentration reported by the vender. […] After one hour incubation at 25° C., the plates were read on a PHERAstar FS plate reader (BMG Labtech). Ki values were determined.

HPK1, sequence (Q92918 1-346): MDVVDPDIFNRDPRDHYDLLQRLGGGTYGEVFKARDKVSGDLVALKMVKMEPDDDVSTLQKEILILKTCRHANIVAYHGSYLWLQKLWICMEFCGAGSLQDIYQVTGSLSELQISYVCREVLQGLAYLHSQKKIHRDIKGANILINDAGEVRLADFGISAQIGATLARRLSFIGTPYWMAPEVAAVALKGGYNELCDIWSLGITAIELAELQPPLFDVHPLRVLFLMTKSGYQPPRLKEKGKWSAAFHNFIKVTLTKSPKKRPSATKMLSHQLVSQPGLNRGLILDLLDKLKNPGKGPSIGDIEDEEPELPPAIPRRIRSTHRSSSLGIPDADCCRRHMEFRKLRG

SMILES	Ki
COc1cccc(F)c1-c1nccc(C(=O)Nc2cc(F)c(CN3CCOCC3)cc2N2C[C@@H]3C[C@H]2CN3)n1 [Example 30, N-(2-((1S,4S)-2,5-Diazabicyclo[2.2.1]heptan-2-yl)-5-fluoro-4-(morpholinomethyl)phenyl)-2-(2-fluoro-6-methoxyphenyl)pyrimidine-4-carboxamide]	< 100 nM
COc1cccc(F)c1-c1nccc(C(=O)Nc2ccc(-c3c(C)nn(C)c3C)cc2N2C[C@@H]3C[C@H]2CN3)n1 [Example 27, N-(2-((1S,4S)-2,5-Diazabicyclo[2.2.1]heptan-2-yl)-4-(1,3,5-trimethyl-1H-pyrazol-4-yl)phenyl)-2-(2-fluoro-6-methoxyphenyl)pyrimidine-4-carboxamide]	< 100 nM
COc1cccc(F)c1-c1nccc(C(=O)Nc2cc(F)c(N3CCC3)cc2N2C[C@@H]3C[C@H]2CN3)n1 [Example 29, N-(4-(Azetidin-1-yl)-2-((1S,4S)-2,5-diazabicyclo[2.2.1]heptan-2-yl)-5-fluorophenyl)-2-(2-fluoro-6-methoxyphenyl)pyrimidine-4-carboxamide]	< 100 nM
COc1cccc(F)c1-c1nccc(C(=O)Nc2cc(F)c(N3CCOCC3)cc2N2C[C@@H]3C[C@H]2CN3)n1 [Example 28, N-(2-((1S,4S)-2,5-Diazabicyclo[2.2.1]heptan-2-yl)-5-fluoro-4-morpholinophenyl)-2-(2-fluoro-6-methoxyphenyl)pyrimidine-4-carboxamide]	< 100 nM

From patent US11731958B2, “Carboxamide compounds and uses thereof” (Incyte Corporation, priority 2018, dated 2023)
